From patent US6989435B2, “Compounds and methods to inhibit or augment an inflammatory response” (Cambridge University Technical Services Ltd., priority 1997, dated 2006)

Tests used:
[1] = test system: MIP1α induced THP-1 migration; assay: Trans-well THP-1 migration assay, MIP1α as chemoattractant; format: cell-based, human; details: Table 4(b); 100 μM peptide; n.s. = no statistically significant inhibition
Experimental: FIG. 1 is a schematic of the trans-well migration assay. In most experiments, the peptide (wavy line) is added to the upper well with about 50,000 cells (O). The upper and lower wells are separated by a 5 μm or 8 μm pore size PVP-free membrane (- - - -). Chemokine (●) is added to the lower well. After 4 hours, the number of cells that have migrated through the membrane are measured (◯ in lower well).
To determine whether an agent inhibits a chemokine-induced activity, such as macrophage recruitment, varying amounts of the agent are mixed with cells in the presence of a known chemoattractant. For example, a range of known concentrations of an agent, e.g., a chemokine peptide, is incubated with a defined number (e.g., 10^4-10^6) of human THP-1 monocyte cells in individual wells of the top compartment of a trans-well plate. […] A standard curve consisting of a two-fold dilution series of THP-1 cells (in 29 μl) is prepared to accurately quantify the number of cells that have migrated. […] Absorbance of converted dye is measured at a wavelength of 595 nm using an ELISA plate reader. The number of migrated cells in each well is then determined by interpolation of the standard curve (see also Imai et al., J. Biol. Chem., 272, 15036 (1997)). […]

[2] = test system: TGFβ1 induced THP-1 migration; assay: Trans-well THP-1 migration assay, TGFβ1 as non-chemokine control chemoattractant; format: cell-based, human
Experimental: Any method suitable for counting cells can be used, for example, counting with a hemocytometer, incubation of the cells with MTT (see above), or FACS analysis. A negative control assay is also performed, using TGF-β or another non-chemokine chemoattractant (e.g., IL1β or TNFα). To assess whether the agent is cytotoxic, the same concentrations of agent are incubated with THP-1 cells. Agents which 1) are not cytotoxic at levels which inhibit migration, 2) are ineffective at inhibiting the negative control-induced migration, and 3) reduce or inhibit chemokine-induced THP-1 migration, are agents which fall within the scope of the invention.
For this assay, THP-1 cells were maintained at a density of 4×10^5 cells per ml in RPMI-1640 supplemented with 10% fetal calf serum+20 μM 2-mercaptoethanol. Chemotaxis was induced in a 96-well disposable chemotaxis chamber fitted with a […] polycarbonate filter (PVP free, ChemoTX, Neuroprobe Inc., Cabin John). Twenty-nine μl of chemoattractant (recombinant human chemokine; 50 ng/ml, i.e., 5.9 nM) or control (100 ng/ml TGFβ) was added to the lower compartment of each well. The framed filter was aligned with the holes in the corner of the filter frame and placed over the wells. Five×10^4 THP-1 cells in 25 μl of RPMI-1640 culture media were added to the upper compartment. Peptides were dissolved in Milli Q water and then serially diluted in culture medium. […]
After incubation, the cells were gently removed from the top of the filter with a pipette, 20 μl of 20 mM EDTA in PBS was added into each top well, and the mixture was incubated for 20 minutes at 4° C. […] A standard curve was prepared to accurately quantify the number of THP-1 cells that had migrated. […] Absorbance of converted dye was measured at a wavelength of 595 nm using an ELISA plate reader. The number of cells that had migrated in each well was determined by interpolation of the standard curve.
To investigate the receptor specificity of peptide 3 inhibition, the ED50 was determined for peptide 3(1-12)[MCP-1] […]

EICADPKQKWVQ [Peptide 3]
Extent of inhibition of THP-1 migration at 100 μM, MIP1α [1]: 99%
Extent of inhibition of THP-1 migration at 100 μM, TGFβ1 ([2]; Table 4(b), 100 μM peptide, n.s. = no statistically significant inhibition): n.s.
inhibition of TGF-beta induced THP-1 migration ([2]; even at 100 μM): did not significantly inhibit
